# Measured values as given in article PMC5510229, “BCAT1 controls metabolic reprogramming in activated human macrophages and is associated with inflammatory diseases” (Nature Communications, 2017).
# Test system: human monocyte-derived macrophages (hMDMs)
# Assay: hMDM cell viability (alamarBlue)
# Assay type: cell-based
# Settings: ERG240 20 mM
# Method: Migration of BMDMs an d viability of hMDMs
# The migration of BMDMs was assessed using a modified Bo yden chamber methodology.
# Specificall y, mouse BMDMs were tr ypsinized and suspended in serum free incomplete medi a containing various concentrations of the drug at a cell density of 2.5x10^4 cells/mL. Volumes of 400 µL of cell suspens ions were added onto the upper chamber of 6.5 m m transwell inserts (Costar, Cat. No. 3422), placed in a 24-well plate (Costar). A volume of 1.5 mL of complete media containing 10% FBS as chemo- attractant were added into the lower chambers of the plate. The assa y also included wells with lower chambers containing serum free incomplete media as negative control. […]
# To determine the effect of ERG240 on the total number of BMDMs, cell s were plated onto a 96-well plate at a density of 5,000 cells per well in complete media and allowed to adhere overnight. The cells were then exposed to various drug concentrations overnight and the cell population was quantified with CyQuant Cell Proliferation kit (Life Technologies) using triplicates, in two independent experiments. For hMDMs, cell viability was determined using the alamarBlue® Assa y (Invitrogen). […]
# backed up by quantitative proteomics by LC -MS/MS (with maximum of the 12 most abundant multiply -charged ions registered in each survey spectrum selected in a data - […]
smiles,measurement,setting,value
CC(=O)C(C)CCC(=O)O (centres unmarked) [ERG240],cell viability at 3 and 8 h,control and LPS-treated hMDMs,did not affect cell viability
same,cell viability at 24 h,only in LPS-stimulated cells,modest but significant reduction in cell viability
